pIC50: −log10 of the molar value.
Columns and labels:
PDE7A = molecular target: T1, PDE7A (Homo sapiens, UniProt Q13946); assay: PDE7 enzymatic assay, IC50 determination (PDE7A); format: biochemical; details: human recombinant enzyme, 0.1 μM FAM-cAMP, 30 min 25° C.
T1 construct: host or cells: Sf9 insect cells
Method: (§1) The ability of compounds to inhibit PDE7 may be measured using the following assay protocal: Assay methods for IC50 determination of PDE7 and variants involve as enzyme source human recombinant insect Sf9 cells. The substrate is 0.1 μM FAM-cAMP and the vehicle is 1.0% DMSO or 1.0% PEG 400. Pre-incubation time and temperature are 15 minutes at 25° C. and incubation time and temperature are 30 minutes at 25° C. The incubation buffer consists of 10 mM Tris-HCl, PH 7.2, 10 mM MgCl2, 0.05% NaN3, and 0.1% phosphate-free BSA. The quantitation method used is spectrofluorimetric quantitation of Fluorescein-AMP-IMAP. IBMX reference standards are run as an integral part of each assay to ensure the validity of the results obtained. The IC50 is the concentration of the compound (inhibitor) tested in the assay which makes it possible to reduce the enzymatic activity of PDE7 by 50%. IC50 values are finally determined by a non-linear, least squares regression analysis using MathIQ™ (ID Business Solutions Ltd., UK).
(§2) The compounds to be tested as PDE7 inhibitors were initially dissolved in vehicle at a concentration of 30 mM. These solutions were tested as the highest test concentration and then further diluted in cascade always in a ratio of 1:6 to obtain solutions with the desired lower test concentrations. Each assay was carried out in duplicate.

[1] = system: isolated rat soleus muscle; assay: Ex vivo model: residual contractile force of isolated rat soleus muscle in high KCl buffer (Na+/K+ATPase activation); details: for Mean residual contractile force in % (SEM in %): after 30 min in KCl 12.5 mM buffer
Excerpt: Muscular fatigue and loss of force (e.g., loss of handgrip strength) is a hallmark in ME/CFS patients. A main target of PDE7 inhibition is the skeletal muscle whose energetic function is deeply disturbed in ME/CFS and which is presumed to be very important in the symptomatology of ME/CFS. Insufficient stimulation of the Na^+/K^+ATPase plays a key role in the development of the disturbances by a rise in intramuscular sodium that finally leads to calcium overload. The latter causes a deep functional energetic disturbance or damage. The isolated rat muscle either soleus muscle or extensor digitorum longus muscle is a well-characterized and well-validated model for the study of the function of the Na^+/K^+ATPase. The isolated rat soleus muscle is particularly appropriate for experiments ex vivo as it is very thin so that there is no need for blood supply. […] In the experimental setting used, the high KCl concentration buffer causes partial depolarization that leads to sodium influx to disturb and to decrease excitability to subsequently reduce muscle force. Stimulation of Na^+/K^+ATPase lowers intracellular sodium levels towards physiological levels to restore excitability and muscular force during electrical stimulation.
The decline in force in the soleus muscle can be considered as muscular fatigue and related to the loss of hand grip muscular strength in ME/CFS patients. As the phosphodiesterase isoenzyme subtype 7 (PDE7) is the predominant PDE isoenzyme in skeletal muscle to raise cAMP this ex vivo model is suited for the testing the effect of PDE7 inhibitors and in particular their effect on force generation disturbed by mechanisms that worsen excitability or the energetic situation. […] High level activity of Na^+/K^+ATPase stimulated by cAMP can counteract the decrease in excitability and the loss of force.
Muscle preparation and incubation: Female Sprague Dawley rats of 5 weeks of age were used. After isoflurane anesthesia and cervical dislocation the intact soleus muscles of the animals were dissected. The soleus muscles were mounted at resting length in a vertical position between two field stimulation electrodes (thick copper wires) in organ bathes containing 15 mL incubation medium. The lower end of the muscle was fixed to a clip fixed to the bottom of the organ bath, the upper end of the muscle was fixed to an isometric force transducer (Force transducer K300 Hugo Sachs) by a clip allowing measurement of isometric contractions, and a tension of 100 mN was applied.
Force measurement: The experimental set-up used for force measurements allowed for the simultaneous recordings from 6 muscles in separate incubation chambers in parallel. Force was recorded and stored with a Notocord HEM data acquisition system. […] Incubation took place at 30° C. […] Electrical stimulation protocol: After an equilibration period of 30 min muscles were field-stimulated to deliver optimal force at 83 Hz, 2-3 ms pulses, 12 V (biphasic), 0.2-0.5 s train width with a Hugo Sachs stimulator (HSE). […] Stimulations were then performed every 5 min for 30 min. […] Two control groups were included.
The residual contractile force after 30 min in high KCl buffer was chosen as the efficacy parameter and related to the last value of stimulated force in the initial buffer in the same organ bath. The percentages of residual force were compared between the different groups and used for statistical calculation.

PDE7 = PDE7 enzymatic assay, IC50 determination (PDE7); format: biochemical; details: human recombinant enzyme, 0.1 μM FAM-cAMP, 30 min 25° C.
Method: as §1, §2

PDE7B = molecular target: T2, PDE7B (Homo sapiens, UniProt Q9NP56); assay: PDE7 enzymatic assay, IC50 determination (PDE7B); format: biochemical; details: human recombinant enzyme, 0.1 μM FAM-cAMP, 30 min 25° C.
T2 construct: host or cells: Sf9 insect cells
Method: as §1, §2

PDE7 enzyme = details: cited from earlier work

T2 sequence (Q9NP56 whole entry): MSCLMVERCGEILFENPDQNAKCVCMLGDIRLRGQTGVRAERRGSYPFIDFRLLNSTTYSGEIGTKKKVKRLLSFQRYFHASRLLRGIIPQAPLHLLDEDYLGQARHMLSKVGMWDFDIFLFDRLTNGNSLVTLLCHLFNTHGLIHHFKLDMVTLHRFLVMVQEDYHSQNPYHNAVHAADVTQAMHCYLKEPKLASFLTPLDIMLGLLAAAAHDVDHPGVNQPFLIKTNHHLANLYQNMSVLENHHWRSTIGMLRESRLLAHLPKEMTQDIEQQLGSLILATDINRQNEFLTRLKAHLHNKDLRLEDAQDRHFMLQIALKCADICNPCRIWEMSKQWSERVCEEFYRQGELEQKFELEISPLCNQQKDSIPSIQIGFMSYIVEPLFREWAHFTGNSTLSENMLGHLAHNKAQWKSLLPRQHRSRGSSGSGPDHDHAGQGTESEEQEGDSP
T1 sequence (Q13946 whole entry): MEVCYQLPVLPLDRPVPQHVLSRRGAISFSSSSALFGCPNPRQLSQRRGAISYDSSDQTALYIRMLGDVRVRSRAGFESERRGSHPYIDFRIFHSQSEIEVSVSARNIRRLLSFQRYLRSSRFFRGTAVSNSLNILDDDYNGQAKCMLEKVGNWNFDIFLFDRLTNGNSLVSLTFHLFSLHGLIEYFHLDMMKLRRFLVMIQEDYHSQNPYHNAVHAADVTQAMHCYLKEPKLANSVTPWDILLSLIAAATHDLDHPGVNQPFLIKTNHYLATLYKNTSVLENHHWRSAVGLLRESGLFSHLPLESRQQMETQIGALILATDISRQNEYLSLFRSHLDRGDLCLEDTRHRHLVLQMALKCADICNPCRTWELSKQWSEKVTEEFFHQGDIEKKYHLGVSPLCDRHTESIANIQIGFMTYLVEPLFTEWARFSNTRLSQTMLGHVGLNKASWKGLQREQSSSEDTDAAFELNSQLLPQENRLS

pIC50 (PDE7A) | pIC50 (PDE7) | Compound | also measured
4.38 | – | OCCN(CCO)c1nc(N2CCCCC2)c2nc(N(CCO)CCO)nc(N3CCCCC3)c2n1 [Dipyridamole, 2,2′,2″,2′″-[[4,8-Di(piperidin-1-yl)pyrimido[5,4-d]pyrimidine-2,6-diyl]dinitrilo]tetraethanol, reference compound] | Mean residual contractile force in % (SEM in %) ([1]; 30 μM in the presence of salbutamol 1 μM): 46.3 (6.3); n = 15; p < 0.01%; effect on residual contractile force compared with salbutamol alone ([1]; test compound plus salbutamol 1 μM, KCl 12.5 mM buffer): numerically stronger effect than salbutamol alone
– | 7.70 | Cc1nn(C2CCCCC2)c2sc(C(=O)Nc3ccc(N4CCNC4=O)nc3)cc12 [Formula No. 6A] | –
7.95 | 7.48 | CNC(=O)c1ccc(NC(=O)c2cc3c(C)nn(C4CCCCC4)c3s2)cn1 [Formula No. 6B] | pIC50 (PDE7B): 7.28; Mean residual contractile force in % (SEM in %) ([1]; 0.99 μM in the presence of salbutamol 1 μM): 50.7 (3.6); n = 6; p < 0.05%
– | 7.85 | Cc1nn(C2CCCCC2)c2sc(C(=O)Nc3ccc(C(=O)N(C)C)cc3)cc12 [Formula No. 6C] | –
– | 7.43 | CC(=O)Nc1ccc(NC(=O)c2cc3c(C)nn(C4CCCCC4)c3s2)cc1 [Formula No. 6D] | –
– | 7.62 | Cc1nn(C2CCOCC2)c2sc(C(=O)N[C@H]3CC[C@H](N4CCOCC4)CC3)cc12 [Formula No. 6E] | –
– | 7.72 | CC(=O)N1CCN([C@H]2CC[C@H](NC(=O)c3cc4c(C)nn(C5CCOCC5)c4s3)CC2)CC1 [Formula No. 6F] | –
– | 7.70 | Cc1nn(C2CCCCC2)c2sc(C(=O)NCC(C)(C)CN3C(=O)CNC3=O)cc12 [Formula No. 6G] | –
– | 7.47 | Cc1nn(C2CCCCC2)c2sc(C(=O)N[C@H](C)CN3C(=O)CNC3=O)cc12 [Formula No. 6H] | –
– | – | Cc1ccc([N+](=O)[O-])cc1S(=O)(=O)N(C)C [Formula No. 8A] | Mean residual contractile force in % (SEM in %) ([1]; 4.5 μM in the presence of salbutamol 1 μM): 80.2 (6.0); n = 15; p < 0.001%
9.52 | – | O=C1Nc2c(Cl)ccc(Oc3ccccc3-c3nnn[nH]3)c2C2(CCCCC2)N1 [Formula No. 35A] | pIC50 (PDE7B): 9.05
– | – | S=c1[nH]c2ccccc2c(=S)n1-c1ccccc1 [Formula No. 42A, 3-phenyl-2,4(1H,3H)-quinazolinedithione] | Mean residual contractile force in % (SEM in %) ([1]; 3.5 μM in the presence of salbutamol 1 μM): 48.5 (8.6); n = 7; p < 0.05%
7.59 | – | O=C1Nc2c(Cl)ccc(O[C@H]3C[C@H](C(=O)O)C3)c2C2(CCCCC2)N1 [Formula No. 44A] | pIC50 (PDE7B): 7.14; Mean residual contractile force in % (SEM in %) ([1]; 26 nM in the presence of salbutamol 1 μM): 63.5 (7.8); n = 6; p < 0.01%
7.85 | – | COc1ccc(Cn2c(=O)c3cc(OC(CF)CF)c(F)cc3n(C3CCN(C=O)CC3)c2=O)cc1OC [Formula No. 55E] | pIC50 (PDE7B): 7.08; Mean residual contractile force in % (SEM in %) ([1]; 29 nM in the presence of salbutamol 1 μM): 69.3 (4.1); n = 5; p < 0.01%
– | – | CC(C)(C)NCC(O)c1ccc(O)c(CO)c1 (stereo not shown) [Salbutamol, reference compound] | Mean residual contractile force in % (SEM in %) ([1]; salbutamol alone 1 μM): 26.5 (3.9); n = 30%
– | – | COc1ccc(C2CNC(=O)C2)cc1OC1CCCC1 (stereo not shown) [rolipram] | inhibition of PDE7 by rolipram (PDE7 enzyme): not inhibited

Compound | pIC50 (PDE7A) | pIC50 (PDE7) | also measured
O=CN1CCC(n2c(=O)n(Cc3ccc(-c4cccs4)cc3)c(=O)c3cc(OC(CF)CF)c(F)cc32)CC1 [Formula No. 55J] | – | > 7.00 | –
CC(C)Cn1c(=O)n(C)c(=O)c2[nH]cnc21 [IBMX, 3-isobutyl-1-methylxanthine, reference compound] | 5.00 | – | –

— patent publication US20260060970A1, “Use of a Therapeutic Agent with Phosphodiesterase-7 Inhibitory Activity for the Treatment and Prevention of Diseases Associated with Chronic Fatigue, Exhaustion and/or Exertional Intolerance” (MITODICURE GMBH, priority 2022, published 2026)
